Patent US20100056596A1, “RESISTANCE-REPELLENT RETROVIRAL PROTEASE INHIBITORS” (Sequoia Pharmaceuticals, priority 2004, published 2010)
Where two headings read alike, the source gives them in different places.

Tests used:
wild type HIV-1 protease = target: T1, wild type HIV-1 protease (Human immunodeficiency virus type 1 group M subtype B, UniProt P04585); test: Ki against wild type (WT) HIV-1 protease; format: biochemical
T1 construct: over 45 of the 99 amino acids of the HIV protease monomer

HIV-1 protease Mutant 9 = HIV-1 protease Mutant 9 (Human immunodeficiency virus type 1, UniProt P04585); test: Ki against HIV-1 protease Mutant 9; format: biochemical
HIV-1 isolates, Mutant 9 = test: In vitro drug sensitivity of HIV-1 laboratory isolates, Mutant 9; format: cell-based
Protocol: (§1) In Vitro Drug Sensitivity of HIV-1 Laboratory Isolates to PIs
(§2) The sensitivities of HIV-1 isolates against compounds of the invention were determined as previously described with minor modifications (Shiraska et al., Proc. Natl. Acad. Sci. USA, 92, 2398-2402 (1995)).

HIV-1 isolates, Mutant 8 = test: In vitro drug sensitivity of HIV-1 laboratory isolates, Mutant 8; format: cell-based
Protocol: as §1, §2

HIV-1 protease Mutant 8 = HIV-1 protease Mutant 8 (Human immunodeficiency virus type 1, UniProt P04585); test: Ki against HIV-1 protease Mutant 8; format: biochemical
HIV-1 isolates, WT = test: In vitro drug sensitivity of HIV-1 laboratory isolates, WT; format: cell-based
Protocol: as §1, §2

[1] = Human immunodeficiency virus 1, read-out: IC50 Mutant 9
[2] = Human immunodeficiency virus 1, read-out: IC50 Mutant 8
[3] = Human immunodeficiency virus 1, HIV-1 isolate WT
[4] = Mutant 9, read-out: IC50 Mutant 9
[5] = Mutant 8, read-out: IC50 Mutant 8

| Compound | Ki (wild type HIV-1 protease; wild type HIV-1 protease) [nM] | Ki (HIV-1 protease Mutant 9; HIV-1 protease Mutant 9) [nM] | IC50 (HIV-1 isolates, Mutant 9; [1]) [nM] | IC50 (HIV-1 isolates, Mutant 8; [2]) [nM] | Ki (HIV-1 protease Mutant 8; HIV-1 protease Mutant 8) [nM] | IC50 (HIV-1 isolates, WT; [3]) [nM] | Ki (wild type HIV-1 protease; WT) [nM] | Ki (HIV-1 protease Mutant 9; Mutant 9) [nM] | IC50 (HIV-1 isolates, Mutant 9; [4]) [nM] | IC50 (HIV-1 isolates, Mutant 8; [5]) [nM] | Ki (HIV-1 protease Mutant 8; Mutant 8) [nM] | IC50 (HIV-1 isolates, WT; WT) [nM] | IC50 (HIV-1 isolates, WT; Human immunodeficiency virus 1) [nM] |
| --- | --- | --- | --- | --- | --- | --- | --- | --- | --- | --- | --- | --- | --- |
| CC(C)CN(CC(O)C(Cc1ccccc1)NC(=O)OC1COC2OCCC12)S(=O)(=O)c1ccc2onc(CNCC(F)(F)F)c2c1 (stereo not drawn) [Compound 229] | < 0.1 | 0.46 | 21 | 3.1 | < 0.3 | 2.2 |  |  |  |  |  |  |  |
| CC(=O)NCc1coc2ccc(S(=O)(=O)N(CC(C)C)C[C@@H](O)[C@H](Cc3ccccc3)NC(=O)OC3COC4OCCC34)cc12 (stereo partly drawn) [Compound 107] |  |  |  |  |  |  | < 0.1 | 0.26 | 42 | 28 | < 0.3 | 15 |  |
| CC(C)CN(CC(O)C(Cc1ccccc1)NC(=O)OC1COC2OCCC12)S(=O)(=O)c1ccc2onc(CN)c2c1 (stereo not drawn) [Compound 203] | < 0.1 | 0.71 | 120 | 70 | < 0.3 | 22 |  |  |  |  |  |  |  |
| CC(C)CN(CC(O)C(Cc1ccccc1)NC(=O)OC1COC2OCCC12)S(=O)(=O)c1ccc2onc(CNCCOc3ccccc3)c2c1 (stereo not drawn) [Compound 230] | < 0.1 | 0.14 | 57 | 20 | < 0.3 | 4.8 |  |  |  |  |  |  |  |
| CC(C)CN(C[C@@H](O)[C@H](Cc1ccccc1)NC(=O)OC1COC2OCCC12)S(=O)(=O)c1ccc2occ(CNC(=O)CSCc3ccccc3)c2c1 (stereo partly drawn) [Compound 119] |  |  |  |  |  |  | 0.12 | 0.95 | 170 | 42 | < 0.3 | 5 |  |
| Cc1nc(CNCc2noc3ccc(S(=O)(=O)N(CC(C)C)CC(O)C(Cc4ccccc4)NC(=O)OC4COC5OCCC45)cc23)cs1 (stereo not drawn) [Compound 242] | < 0.1 | 0.22 | 27 | 15 | < 0.3 | 7 |  |  |  |  |  |  |  |
| CC(C)CN(C[C@@H](O)[C@H](Cc1ccccc1)NC(=O)OC1COC2OCCC12)S(=O)(=O)c1ccc2occ(CNCCc3ccccn3)c2c1 (stereo partly drawn) [Compound 117] |  |  |  |  |  |  | < 0.1 | < 0.1 | 49 | 27 | < 0.3 | 7 |  |
| CCCCNc1n[nH]c2ccc(S(=O)(=O)N(CC(C)C)CC(O)C(Cc3ccccc3)NC(=O)OC3COC4OCCC34)cc12 (stereo not drawn) [Compound 308] |  |  | 310 | 30 |  |  | < 0.1 | 1.8 |  |  | < 0.3 |  | 8 |
| CC(C)CN(CC(O)C(Cc1ccccc1)NC(=O)OC1COC2OCCC12)S(=O)(=O)c1ccc2onc(CNC3CCCC3)c2c1 (stereo not drawn) [Compound 235] | < 0.1 | 0.43 | 120 | 15 | < 0.3 | 4.2 |  |  |  |  |  |  |  |
| CC(C)CN(CC(O)C(Cc1ccccc1)NC(=O)OC1COC2OCCC12)S(=O)(=O)c1ccc2onc(CNCc3ccccn3)c2c1 (stereo not drawn) [Compound 241] | 0.1 | 0.16 | 27 | 17 | < 0.3 | 8 |  |  |  |  |  |  |  |
| CCOC(=O)N(CCOC)Cc1noc2ccc(S(=O)(=O)N(CC(C)C)CC(O)C(Cc3ccccc3)NC(=O)OC3COC4OCCC34)cc12 (stereo not drawn) [Compound 225] | < 0.1 | 0.44 | 80 | 27 | < 0.3 | 3.6 |  |  |  |  |  |  |  |
| CC(C)CN(C[C@@H](O)[C@H](Cc1ccccc1)NC(=O)OC1COC2OCCC12)S(=O)(=O)c1ccc2occ(CNC(=O)c3cccnc3)c2c1 (stereo partly drawn) [Compound 118] |  |  |  |  |  |  | < 0.1 | 0.12 | 39 | 35 | < 0.3 | 30 |  |
| CCOC(=O)CNc1n[nH]c2ccc(S(=O)(=O)N(CC(C)C)CC(O)C(Cc3ccccc3)NC(=O)OC3COC4OCCC34)cc12 (stereo not drawn) [Compound 310] |  |  | 60 | 70 |  |  | < 0.1 | 0.19 |  |  | < 0.3 |  | 50 |
